Test results reported in patent US11097034B2, “Compositions and methods of modulating endochondral ossification and bone formation” (CASE WESTERN RESERVE UNIVERISTY, priority 2016, dated 2021).

Legend:
[1] = tested on: bone fracture; test: Temporal delivery of NGF to bone fracture site; assay type: in vivo, mice; details: NGF delivery 7-9 days post-fracture compared with 4-6 days
Text: FIGS. 24(A-B) illustrate plots showing the temporal therapeutic delivery of NGF to improve bone fracture healing in mice. (A) Timeline of experimental delivery of NGF to bone fracture site for two different post-fracture time ranges. (B) NGF expression decreases over time post-fracture.

[2] = tested on: unstable tibia fractures; test: Carbachol injection into tibia fracture callus, μCT; assay type: in vivo, mouse; details: injected into callus during cartilaginous phase; vs DMEM controls; trend
Description: All procedures were performed on adult male wild type (C57BL/6) mice. We created unstable tibia fractures through three point bending and surgically resected nerves proximal to the fracture (either the sciatic nerve, femoral nerve, or both) and compared them to mice who received sham procedures. We injected Carbachol (Cch), a synthetic acetylcholine analogue, into the callus during the cartilaginous phase of healing and compared them to controls that were injected with Dulbecco's Modified Eagle's medium (DMEM) alone. Bone mineral density (BMD) and bone volume were quantified using micro-computed tomography (μCT) analysis. Following μCT the tibiae were processed for histology and stained using the Hall Brunt Quadruple stain (HBQ). The tissue composition was quantified using stereology on an Olympus Cast system.

Row | Compound | activation of selected bone healing markers [1] | bone mineral density (BMD), μCT [2]
1 | NGF: nerve growth factor | more robust activation of selected bone healing markers | 
2 | C[N+](C)(C)CCOC(N)=O [Cch, Carbachol] |  | higher BMD than controls
